From ChEMBL document CHEMBL5465560, “Selectivity Literature for EUbOPEN Chemogenomic Library” (2024)
Values belong to the compound of their own block, whether it stands above or below them.

How the values were obtained:
[1] = target: Serine/threonine-protein kinase PAK 2 (Homo sapiens) (UniProt Q13177); settings: at 10 µM
[2] = target: Cyclin-dependent kinase 1 (Homo sapiens) (UniProt P06493); assay: Selectivity interaction (ActivX KiNativ screen (kinase selectivity in THP-1 cell lysates)) EUB0000639a CDK1; assay type: subcellular; settings: lysate
Chain of Cyclin-dependent kinase 1 (Homo sapiens) (P06493 whole entry, looked up): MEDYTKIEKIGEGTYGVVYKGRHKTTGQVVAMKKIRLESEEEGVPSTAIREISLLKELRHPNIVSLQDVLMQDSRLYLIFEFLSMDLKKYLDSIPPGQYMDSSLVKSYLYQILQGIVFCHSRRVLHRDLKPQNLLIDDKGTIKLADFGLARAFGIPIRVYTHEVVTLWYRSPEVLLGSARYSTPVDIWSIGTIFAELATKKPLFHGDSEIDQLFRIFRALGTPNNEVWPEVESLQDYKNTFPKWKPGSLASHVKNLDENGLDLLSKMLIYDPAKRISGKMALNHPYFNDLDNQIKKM

[3] = target: Mitogen-activated protein kinase kinase kinase kinase 1 (Homo sapiens) (UniProt Q92918); assay: Selectivity interaction (ActivX KiNativ screen (kinase selectivity in THP-1 cell lysates)) EUB0000639a MAP4K1; assay type: subcellular; settings: lysate, at 0.04 µM
Chain of Mitogen-activated protein kinase kinase kinase kinase 1 (Homo sapiens) (Q92918 whole entry, looked up): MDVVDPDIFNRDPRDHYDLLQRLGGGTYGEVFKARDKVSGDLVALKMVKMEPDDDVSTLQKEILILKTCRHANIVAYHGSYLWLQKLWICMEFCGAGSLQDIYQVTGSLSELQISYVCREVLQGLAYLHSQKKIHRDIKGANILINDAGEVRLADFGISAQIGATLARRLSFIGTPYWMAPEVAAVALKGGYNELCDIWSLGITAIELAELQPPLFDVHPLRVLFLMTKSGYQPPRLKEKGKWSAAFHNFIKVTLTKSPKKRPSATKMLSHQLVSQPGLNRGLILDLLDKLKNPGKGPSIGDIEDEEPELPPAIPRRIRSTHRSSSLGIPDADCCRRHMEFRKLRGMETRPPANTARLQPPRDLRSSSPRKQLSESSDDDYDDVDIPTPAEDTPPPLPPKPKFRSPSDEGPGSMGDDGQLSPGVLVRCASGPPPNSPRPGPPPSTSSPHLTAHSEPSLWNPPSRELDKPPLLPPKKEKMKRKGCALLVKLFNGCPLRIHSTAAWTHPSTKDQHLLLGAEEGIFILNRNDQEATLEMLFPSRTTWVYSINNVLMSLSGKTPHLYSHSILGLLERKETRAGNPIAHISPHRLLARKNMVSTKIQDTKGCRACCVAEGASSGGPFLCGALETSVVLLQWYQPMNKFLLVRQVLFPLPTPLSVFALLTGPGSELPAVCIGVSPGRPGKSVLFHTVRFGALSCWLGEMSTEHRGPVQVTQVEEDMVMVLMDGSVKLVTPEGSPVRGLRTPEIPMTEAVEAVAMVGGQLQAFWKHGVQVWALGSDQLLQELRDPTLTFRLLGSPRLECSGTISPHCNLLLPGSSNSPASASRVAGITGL

[4] = target: Serine/threonine-protein kinase 38-like (Homo sapiens) (UniProt Q9Y2H1); assay: Selectivity interaction (ActivX KiNativ screen (kinase selectivity in THP-1 cell lysates)) EUB0000639a STK38L; assay type: subcellular; settings: lysate, at 1 µM
Chain of Serine/threonine-protein kinase 38-like (Homo sapiens) (Q9Y2H1 2-464 limits assumed): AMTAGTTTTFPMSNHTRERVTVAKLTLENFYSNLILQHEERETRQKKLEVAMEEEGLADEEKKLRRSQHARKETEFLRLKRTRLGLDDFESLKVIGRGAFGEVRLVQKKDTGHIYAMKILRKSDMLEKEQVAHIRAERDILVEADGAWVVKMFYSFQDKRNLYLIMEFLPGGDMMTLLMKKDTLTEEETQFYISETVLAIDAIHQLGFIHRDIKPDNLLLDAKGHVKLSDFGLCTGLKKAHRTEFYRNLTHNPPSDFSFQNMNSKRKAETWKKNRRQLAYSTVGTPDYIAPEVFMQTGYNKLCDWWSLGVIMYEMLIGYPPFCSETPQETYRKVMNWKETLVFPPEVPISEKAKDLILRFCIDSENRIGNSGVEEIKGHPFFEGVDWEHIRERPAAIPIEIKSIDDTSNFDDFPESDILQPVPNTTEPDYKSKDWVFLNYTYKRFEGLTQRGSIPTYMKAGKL

[5] = target: 5'-AMP-activated protein kinase catalytic subunit alpha-2 (Homo sapiens) (UniProt P54646); assay: Selectivity interaction (ActivX KiNativ screen (kinase selectivity in THP-1 cell lysates)) EUB0000639a PRKAA2; assay type: subcellular; settings: lysate, at 5 µM
Chain of 5'-AMP-activated protein kinase catalytic subunit alpha-2 (Homo sapiens) (P54646 whole entry, looked up): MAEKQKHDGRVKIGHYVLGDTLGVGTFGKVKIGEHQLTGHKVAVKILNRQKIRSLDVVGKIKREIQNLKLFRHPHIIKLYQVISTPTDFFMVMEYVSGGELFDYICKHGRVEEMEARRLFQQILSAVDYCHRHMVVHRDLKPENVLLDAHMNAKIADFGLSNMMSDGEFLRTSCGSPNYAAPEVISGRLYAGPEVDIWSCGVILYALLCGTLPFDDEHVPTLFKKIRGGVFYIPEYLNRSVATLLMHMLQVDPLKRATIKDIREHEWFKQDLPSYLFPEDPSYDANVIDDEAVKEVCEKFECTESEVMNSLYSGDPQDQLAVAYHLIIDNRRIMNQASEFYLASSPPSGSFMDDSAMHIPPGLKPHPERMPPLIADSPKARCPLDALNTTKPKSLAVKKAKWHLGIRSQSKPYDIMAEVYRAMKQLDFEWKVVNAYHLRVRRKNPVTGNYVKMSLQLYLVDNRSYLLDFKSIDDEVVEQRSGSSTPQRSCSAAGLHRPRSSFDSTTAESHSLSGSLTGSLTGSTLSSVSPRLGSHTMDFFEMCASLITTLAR

Histamine H1 receptor [6] = target: T1, Histamine H1 receptor (Homo sapiens, UniProt P35367); assay: Selectivity interaction (Histamine H1 receptor assay, human recombinant ) EUB0000877a HRH1
T1 sequence (P35367 whole entry): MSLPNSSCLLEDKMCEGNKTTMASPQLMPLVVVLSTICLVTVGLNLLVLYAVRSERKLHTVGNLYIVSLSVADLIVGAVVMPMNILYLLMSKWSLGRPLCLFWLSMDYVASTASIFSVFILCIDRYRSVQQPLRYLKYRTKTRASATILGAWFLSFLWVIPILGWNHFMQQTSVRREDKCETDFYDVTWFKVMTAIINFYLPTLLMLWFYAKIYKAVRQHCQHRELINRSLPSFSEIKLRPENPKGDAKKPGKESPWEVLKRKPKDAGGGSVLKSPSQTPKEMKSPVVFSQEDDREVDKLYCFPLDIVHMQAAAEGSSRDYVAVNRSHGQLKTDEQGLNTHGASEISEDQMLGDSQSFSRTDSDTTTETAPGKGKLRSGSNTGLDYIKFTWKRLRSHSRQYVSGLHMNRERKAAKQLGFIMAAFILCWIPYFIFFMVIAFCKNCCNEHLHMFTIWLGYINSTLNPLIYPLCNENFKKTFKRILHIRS

[7] = target: Mitogen-activated protein kinase 10 (Homo sapiens, UniProt P53779); assay: Selectivity interaction (LanthaScreen Eu Kinase Binding Assay) EUB0001632a MAPK10; settings: at 10 µM
[8] = target: [Pyruvate dehydrogenase (acetyl-transferring)] kinase isozyme 1, mitochondrial (Homo sapiens, UniProt Q15118); assay: Selectivity interaction (Kinase panel (Z-LYTE Assay)) EUB0001632a PDK1; settings: at 10 µM
[9] = target: Melatonin receptor type 1A (Homo sapiens) (UniProt P48039); assay: Selectivity interaction (Eurofins CEREP Diversity Profile (receptors and ion channels)) EUB0000279b MTNR1A; settings: at 10 µM
Chain of Melatonin receptor type 1A (Homo sapiens) (P48039 whole entry): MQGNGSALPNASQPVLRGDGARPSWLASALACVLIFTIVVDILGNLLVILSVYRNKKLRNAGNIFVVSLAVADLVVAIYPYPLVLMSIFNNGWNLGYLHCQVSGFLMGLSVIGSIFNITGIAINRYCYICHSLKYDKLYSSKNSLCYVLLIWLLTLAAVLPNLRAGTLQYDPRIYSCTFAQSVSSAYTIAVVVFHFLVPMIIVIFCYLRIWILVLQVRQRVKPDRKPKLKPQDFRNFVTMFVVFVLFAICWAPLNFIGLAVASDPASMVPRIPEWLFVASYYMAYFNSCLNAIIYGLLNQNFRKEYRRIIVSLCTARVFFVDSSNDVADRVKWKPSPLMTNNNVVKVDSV

[10] = target: MAP kinase-interacting serine/threonine-protein kinase 2 (Homo sapiens, UniProt Q9HBH9); settings: at 10 µM
Chain of MAP kinase-interacting serine/threonine-protein kinase 2 (Q9HBH9 whole entry, looked up): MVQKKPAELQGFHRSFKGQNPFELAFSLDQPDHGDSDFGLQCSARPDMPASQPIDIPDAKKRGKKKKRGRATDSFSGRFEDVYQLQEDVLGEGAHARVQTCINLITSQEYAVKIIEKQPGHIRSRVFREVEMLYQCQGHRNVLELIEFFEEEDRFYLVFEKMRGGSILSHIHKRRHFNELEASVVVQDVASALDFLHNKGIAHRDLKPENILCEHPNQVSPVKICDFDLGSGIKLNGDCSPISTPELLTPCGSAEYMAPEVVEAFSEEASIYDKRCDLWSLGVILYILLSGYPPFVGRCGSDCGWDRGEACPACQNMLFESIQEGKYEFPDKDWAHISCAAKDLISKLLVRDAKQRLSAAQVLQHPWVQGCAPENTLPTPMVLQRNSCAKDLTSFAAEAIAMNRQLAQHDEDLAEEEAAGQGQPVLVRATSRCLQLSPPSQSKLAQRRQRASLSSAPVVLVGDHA

[11] = target: Proto-oncogene tyrosine-protein kinase Src (Homo sapiens, UniProt P12931); assay: Selectivity interaction (KinomeScan (DiscoverX)) EUB0000595a SRC; settings: at 10 µM
Chain of Proto-oncogene tyrosine-protein kinase Src (P12931 2-536 limits assumed): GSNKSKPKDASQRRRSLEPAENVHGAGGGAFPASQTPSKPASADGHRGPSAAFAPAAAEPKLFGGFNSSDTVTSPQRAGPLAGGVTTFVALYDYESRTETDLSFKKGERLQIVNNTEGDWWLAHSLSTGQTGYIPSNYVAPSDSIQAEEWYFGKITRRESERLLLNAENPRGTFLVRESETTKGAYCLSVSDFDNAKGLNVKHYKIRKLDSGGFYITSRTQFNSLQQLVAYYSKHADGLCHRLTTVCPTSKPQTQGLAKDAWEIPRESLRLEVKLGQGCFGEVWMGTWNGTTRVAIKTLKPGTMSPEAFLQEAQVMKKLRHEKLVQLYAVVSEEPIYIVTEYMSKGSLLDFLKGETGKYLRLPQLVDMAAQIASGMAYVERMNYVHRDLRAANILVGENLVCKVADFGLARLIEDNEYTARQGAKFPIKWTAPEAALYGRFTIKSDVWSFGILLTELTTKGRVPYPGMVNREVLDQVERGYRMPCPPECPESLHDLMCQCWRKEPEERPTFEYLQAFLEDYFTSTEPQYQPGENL

Histamine H1 receptor [12] = target: T1, Histamine H1 receptor; assay: Selectivity interaction (GPCR panel (PDSP screen)) EUB0001079a HRH1; settings: at 10 µM
[13] = target: T2, Dual specificity tyrosine-phosphorylation-regulated kinase 3 (Homo sapiens) (UniProt O43781); assay: Selectivity interaction (ProQinase) EUB0000171b DYRK3
T2 sequence (whole entry): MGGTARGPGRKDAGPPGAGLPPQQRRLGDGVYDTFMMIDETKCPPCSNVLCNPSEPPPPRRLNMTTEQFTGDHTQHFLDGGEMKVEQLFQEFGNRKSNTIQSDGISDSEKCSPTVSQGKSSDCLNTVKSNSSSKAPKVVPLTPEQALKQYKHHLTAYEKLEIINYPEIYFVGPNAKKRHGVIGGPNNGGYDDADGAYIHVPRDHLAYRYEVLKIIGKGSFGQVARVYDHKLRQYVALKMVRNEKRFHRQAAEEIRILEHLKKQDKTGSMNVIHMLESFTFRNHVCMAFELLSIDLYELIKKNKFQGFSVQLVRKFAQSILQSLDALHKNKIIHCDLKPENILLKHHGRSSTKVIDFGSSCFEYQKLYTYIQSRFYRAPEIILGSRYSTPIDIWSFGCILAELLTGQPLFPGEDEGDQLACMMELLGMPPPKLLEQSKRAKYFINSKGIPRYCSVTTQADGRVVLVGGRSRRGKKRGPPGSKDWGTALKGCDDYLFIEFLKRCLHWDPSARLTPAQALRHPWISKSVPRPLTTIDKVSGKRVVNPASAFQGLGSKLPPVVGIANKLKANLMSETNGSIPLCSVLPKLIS

[14] = target: T3, Membrane-associated tyrosine- and threonine-specific cdc2-inhibitory kinase (Homo sapiens) (UniProt Q99640); assay: Selectivity interaction (ProQinase) EUB0000171b PKMYT1
T3 sequence (whole entry): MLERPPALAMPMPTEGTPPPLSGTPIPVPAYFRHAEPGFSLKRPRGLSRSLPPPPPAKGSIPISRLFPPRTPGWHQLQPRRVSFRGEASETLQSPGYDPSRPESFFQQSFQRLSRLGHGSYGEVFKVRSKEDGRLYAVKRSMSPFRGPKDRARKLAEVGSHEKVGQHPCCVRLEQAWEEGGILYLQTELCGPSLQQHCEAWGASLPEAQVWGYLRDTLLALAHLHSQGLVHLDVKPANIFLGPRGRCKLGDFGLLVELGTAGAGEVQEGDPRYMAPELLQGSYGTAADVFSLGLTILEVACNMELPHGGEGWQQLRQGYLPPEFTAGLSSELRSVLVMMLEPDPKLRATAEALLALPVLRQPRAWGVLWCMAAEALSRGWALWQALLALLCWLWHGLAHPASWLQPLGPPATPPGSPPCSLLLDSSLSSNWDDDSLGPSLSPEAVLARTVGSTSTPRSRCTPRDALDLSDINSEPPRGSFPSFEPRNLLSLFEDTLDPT

[15] = target: Serine/threonine-protein kinase PAK 4 (Homo sapiens, UniProt O96013); assay: Selectivity interaction (KinomeScan (DiscoverX)) EUB0000092b PAK4; settings: at 10 µM
Chain of Serine/threonine-protein kinase PAK 4 (O96013 whole entry, looked up): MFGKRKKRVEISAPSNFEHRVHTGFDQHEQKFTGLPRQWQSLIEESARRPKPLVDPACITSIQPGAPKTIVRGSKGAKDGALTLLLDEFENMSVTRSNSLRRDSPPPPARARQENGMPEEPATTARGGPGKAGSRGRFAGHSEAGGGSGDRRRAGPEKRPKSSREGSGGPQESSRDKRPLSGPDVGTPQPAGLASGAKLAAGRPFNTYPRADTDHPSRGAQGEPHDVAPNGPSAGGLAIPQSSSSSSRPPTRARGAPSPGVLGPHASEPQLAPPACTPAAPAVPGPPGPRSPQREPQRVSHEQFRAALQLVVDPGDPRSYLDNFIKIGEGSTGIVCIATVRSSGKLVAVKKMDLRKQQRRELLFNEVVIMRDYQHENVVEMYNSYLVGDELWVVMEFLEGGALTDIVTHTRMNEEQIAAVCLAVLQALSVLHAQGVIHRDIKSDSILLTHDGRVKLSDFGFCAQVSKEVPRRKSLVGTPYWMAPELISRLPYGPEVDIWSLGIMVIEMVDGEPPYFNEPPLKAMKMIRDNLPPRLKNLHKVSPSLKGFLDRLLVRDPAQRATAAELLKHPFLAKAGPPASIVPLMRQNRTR

[16] = target: Mitogen-activated protein kinase kinase kinase kinase 1 (Homo sapiens) (UniProt Q92918); assay: Selectivity interaction (KinomeScan (DiscoverX)) EUB0001619a MAP4K1; settings: at 1 µM
[17] = target: BDNF/NT-3 growth factors receptor (Homo sapiens) (UniProt Q16620); assay: Selectivity interaction (SelectScreen Kinase Profiling (Thermo Fisher Scientific)) EUB0001558a NTRK2; settings: at 1 µM

SMILES: Cc1cc([C@@H](C)Nc2ccccc2C(=O)O)c2nc(N3CCOCC3)cc(=O)n2c1 [AZD-6482]
- % of control [1]: 100%

- % of inhibition ([2]; at 0.01 µM): 2.4%
- % of inhibition ([2]; at 0.04 µM): 3.3%
- % of inhibition ([2]; at 0.2 µM): 14.8%
- % of inhibition ([2]; at 1 µM): 3.1%
- % of inhibition ([2]; at 5 µM): -9%
- % of inhibition [3]: -4.8%
- % of inhibition [4]: 47.8%
- % of inhibition [5]: 18.6%
SMILES: CC[C@@H]1[C@H](F)C(=O)N[C@@H]1COc1nccc2cc(C(N)=O)c(OC)cc12 [ZIMLOVISERTIB]

- IC50 (Histamine H1 receptor [6]): > 30 µM
SMILES: CCC(=O)N1CC[C@H](Nc2ncnc3c2CN(c2cnc(OC)c(C(F)(F)F)c2)CC3)C1 [LENIOLISIB]

- % of inhibition [7]: -2.22%
- % of control [8]: -4.24%
SMILES: Cn1cc(-n2cnc3c(NCc4nc5cc(Cl)c(Cl)cc5[nH]4)nc(N4CCOCC4)nc32)cn1

- % of control [9]: 46%
SMILES: CC(=O)c1cc(-c2ccccc2OCC2CC2)c2ncccn12

- % of control [10]: 100%
SMILES: CCN(CC)CCCCNc1ncc2cc(-c3cc(OC)cc(OC)c3)c(NC(=O)NC(C)(C)C)nc2n1

SMILES: COCC(=O)NC/C=C/c1ccc2ncnc(Nc3ccc(Oc4ccc(C)nc4)c(C)c3)c2c1 [CP-724714]
- % of control [11]: 97%

SMILES: Nc1cnc(N2CCc3cc(S(=O)(=O)Nc4c(F)cc(Cl)cc4F)cc(N4CCCC4=O)c32)nc1 [TP-020n]
- % of inhibition (Histamine H1 receptor [12]): 8.19%

- % of control ([13]; at 1 µM): 82%
- % of control ([13]; at 5 µM): 39%
- % of control ([14]; at 1 µM): 74%
- % of control ([14]; at 5 µM): 56%
SMILES: C=CC(=O)Nc1cccc(C(=O)Nc2ccc(Nc3cc(-c4[nH]c(SC)nc4C)ccn3)cc2)c1

SMILES: CCC(=O)N1CCN(c2ccc(-n3c(=O)ccc4cnc5ccc(-c6cnc7ccccc7c6)cc5c43)cc2C(F)(F)F)CC1
- % of control [15]: 100%

SMILES: N#Cc1cccc(-c2c[nH]c3ncnc(N4CCOCC4)c23)c1
- % of control [16]: 79%

SMILES: CC(C)(O)[C@H](F)CN1Cc2cc(NC(=O)c3cnn4cccnc34)c(N3CCOCC3)cc2C1=O
- % of inhibition [17]: 86%
